Where “and” joins values, the source holds several entries; their conditions need not be identical. Equal entries are not always repeated. Where two headings read alike, the source gives them in different places.
Key:
[1] = test system: C56BL/6 mice; assay: Acetone test of cold allodynia after SNI; assay type: in vivo, mouse; conditions: for effect on SNI-induced cold allodynia (number of paw withdrawals): acetone test
Method: Under isoflurane anesthesia, two of the three branches of the sciatic nerve were ligated and transected distally, leaving the sural nerve intact. Behavior was tested 7 to 14 days after injury.
Mice were placed on a wire mesh and thirty min after an i.p. injection of the compounds we applied a drop (50 μL) of acetone on the ventral aspect of the hindpaw, 5 times every 30 sec. We recorded the number of nocifensive behaviors (paw lifts/licks/shakes/bites) over the 5 applications.

[2] = target: hCB2 (Homo sapiens, UniProt P34972); assay: Tango β-arrestin-2 recruitment assay, HTLA cells; assay type: cell-based; parameters: expressed in transfected cells; host or cells: HTLA (transient); conditions: for Emax: HTLA, read-out: hCB2 Tango ß-arrestin recruitment Emax [95% CI]
Sequence of hCB2 (P34972 whole entry): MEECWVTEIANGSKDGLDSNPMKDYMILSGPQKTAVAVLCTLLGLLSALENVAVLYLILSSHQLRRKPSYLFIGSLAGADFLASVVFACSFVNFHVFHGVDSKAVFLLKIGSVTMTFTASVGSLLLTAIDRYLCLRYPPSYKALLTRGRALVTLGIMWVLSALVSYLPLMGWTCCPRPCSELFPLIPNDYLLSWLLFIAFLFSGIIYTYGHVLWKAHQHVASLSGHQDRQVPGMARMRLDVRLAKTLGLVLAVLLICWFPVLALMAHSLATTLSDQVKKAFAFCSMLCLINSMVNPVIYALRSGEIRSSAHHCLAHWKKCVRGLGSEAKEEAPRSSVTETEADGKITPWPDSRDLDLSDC
Method: The Tango β-arrestin-2 recruitment assays were performed as described. In brief, HTLA cells were transiently transfected with human CB1R or CB2R Tango DNA construct overnight in DMEM supplemented with 10 % FBS, 100 μg ml−1 streptomycin and 100 U ml−1 penicillin. The transfected cells were then plated into poly-L-lysine-coated 384-well white clear-bottom cell culture plates in DMEM containing 1% dialysed FBS at a density of 10,000–15,000 cells per well. After incubation for 6 h, the plates were added with drug solutions prepared in DMEM containing 1% dialysed FBS for overnight incubation. On the day of assay, medium and drug solutions were removed and 20 μl per well of BrightGlo reagent (Promega) was added. The plates were further incubated for 20 min at room temperature and counted using the Wallac TriLux Microbeta counter (PerkinElmer). The results were analysed using GraphPad Prism 9.1. Each experiment was performed in triplicate and functional […] values were determined from the mean of three independent experiments.

[3] = test system: C56BL/6 mice; assay: Body temperature by telemetric probe; assay type: in vivo, mouse; conditions: body temperature over 150 minutes
Method: Body temperature (BT) was measured using a telemetric probe device (HD-X10; Data Science International). Briefly, under anesthesia, the probe device was placed in the mouse abdomen and a subcutaneous tunnel was created from the neck to the abdominal skin, through which a catheter (connected to the probe) was pulled and then inserted into the left carotid artery. Three weeks later, the implanted mice were singly housed in a cage that was placed on top of the DSI receiver (for probe signal detection). […] Data were acquired using the Ponemah Telemetry acquisition software (DSI) and percent changes were presented relative to each mouse’s baseline.

[4] = target: hCB1 (Homo sapiens, UniProt P21554); assay: Lance Ultra cAMP accumulation assay (inhibition of forskolin-stimulated cAMP), CHO cells; assay type: cell-based; parameters: expressed in transfected cells; conditions: for Emax: CHO, read-out: hCB1 Lance Ultra cAMP Emax [95% CI]
Sequence of hCB1 (P21554 whole entry): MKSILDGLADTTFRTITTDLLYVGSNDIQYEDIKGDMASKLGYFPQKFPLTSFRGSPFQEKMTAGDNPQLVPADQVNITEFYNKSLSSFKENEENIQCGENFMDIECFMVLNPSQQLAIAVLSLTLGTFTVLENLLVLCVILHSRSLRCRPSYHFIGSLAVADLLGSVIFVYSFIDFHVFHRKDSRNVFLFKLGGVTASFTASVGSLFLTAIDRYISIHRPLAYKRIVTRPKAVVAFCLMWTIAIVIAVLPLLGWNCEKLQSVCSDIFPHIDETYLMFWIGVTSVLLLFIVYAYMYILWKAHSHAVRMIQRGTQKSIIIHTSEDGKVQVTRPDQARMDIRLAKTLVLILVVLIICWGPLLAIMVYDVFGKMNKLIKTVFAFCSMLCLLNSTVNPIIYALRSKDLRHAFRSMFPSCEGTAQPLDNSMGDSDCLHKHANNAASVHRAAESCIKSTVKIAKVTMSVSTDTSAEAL
Method: The inhibition of forskolin-stimulated cAMP accumulation assays was carried out using PerkinElmer’s Lance Ultra cAMP kit following the manufacturer’s protocol. In brief, CHO cells stably expressing human CB1R were harvested by incubation with Versene (ThermoFisher Scientific, Waltham, MA) for 10 min, washed once with Hank’s Balanced Salt Solution, and resuspended in stimulation buffer at ~200 cells/μL density. The ligands at eight different concentrations (0.001–10,000 nM) in stimulation buffer (5 μL) containing forskolin (2 μM final concentration) were added to a 384-well plate followed by the cell suspension (5 μL; ~1000 cells/well). The plate was incubated for 30 min at room temperature. Eu-cAMP tracer (5 μL) and Ulight-anti-cAMP (5 μL) working solutions were then added to each well, and the plate was incubated at room temperature for an additional 60 min. Results were measured on a Perkin-Elmer EnVision plate reader. The EC50 values were determined by nonlinear regression analysis using Prism software (GraphPad Software, Inc., San Diego, CA) and are expressed as the mean of three experiments, each performed in triplicate.

[5] = Pharmacokinetics in plasma, brain and CSF; assay type: in vivo, CD-1 mice; conditions: 0.2 mg/kg i.p., mice; for half-life: in vivo
Method: The batches of working formulations were prepared 5–10 minutes prior to the in vivo study. […] There was also a one mouse control group. All animals were fasted for 4 h before dosing. Mice were injected i.p. with 2,2,2-tribromoethanol at the dose of 150 mg/kg prior to drawing CSF and blood. Blood collection was performed from the orbital sinus in microtainers containing K3EDTA. CSF was collected under a stereomicroscope from cisterna magna using 1 mL syringes. Animals were sacrificed by cervical dislocation after the blood samples collection. After this, right lobe brain samples were collected and weighted. All samples were immediately processed, flash-frozen and stored at −70°C until subsequent analysis.
Plasma samples (40 μL) were mixed with 200 μL of internal standard solution. After mixing by pipetting and centrifuging for 4 min at 6,000 rpm, supernatant was injected into LC-MS/MS system. […] After this, the samples were centrifuged for 4 min at 14,000 rpm, and supernatant was injected into LC-MS/MS system. CSF samples (4 μL) were mixed with 100 μL of IS(80) solution. After mixing by pipetting and centrifuging for 4 min at 6,000 rpm, 1–6 μL of each supernatant was injected into LC-MS/MS system.
Analyses of plasma, brain and CSF samples were conducted at Enamine/Bienta. The concentrations of compounds in samples were determined using high performance liquid chromatography/tandem mass spectrometry (HPLC-MS/MS) method. Data acquisition and system control was performed using Analyst 1.6.3 software (AB Sciex, Canada). The concentrations of the test compound below the lower limit of quantitation (LLOQ: 2–5 ng/mL for plasma and CSF, 1–5 ng/g for brain) were designated as zero. The pharmacokinetic data analysis was performed using noncompartmental, bolus injection or extravascular input analysis models in WinNonlin 5.2 (PharSight). Data below LLOQ were presented as missing to improve validity of T½ calculations.

[6] = test system: C56BL/6 mice; assay: Catalepsy test (vertical wire mesh); assay type: in vivo, mouse; conditions: for cataleptic behavior: analgesic doses (0.2 or 0.5 mg/kg), 30 minutes or 1-hour post-injection; for concentration window between anti-allodynia or analgesia versus catalepsy and sedation, maximum: depending on the nociceptive behavior
Method: Thirty and 60 minutes after an i.p. injection of the compounds, mice were placed on a vertical wire mesh and the latency to move all four paws was recorded.

[7] = test system: C56BL/6 mice; assay: Acute thermal pain tests (tail flick, hot plate, Hargreaves); assay type: in vivo, mouse; conditions: for tail flick latency of co-injection with morphine (3.0 mg/kg, i.p.) versus morphine alone: 0.05 and 0.1 mg/kg; for analgesic effect under CB1R knockout or AM251 (5.0 mg/kg) pre-treatment: tail flick assay; for lowest dose with significant analgesia (latencies above baseline): tail flick, hot plate and Hargreaves tests, i.p.
[8] = target: T1, CB1 (Rattus norvegicus, UniProt P20272); assay: Radioligand competition binding with [3H]-CP-55,940, rat brain membranes; conditions: for LE: ligand efficiency; for LLE: lipophilic ligand efficiency; for Emax: maximal radioligand displacement, read-out: rCB1 binding Emax [SEM]; for Ki: [3H]-CP-55,940 competition, rat brain membranes
T1 construct: membrane preparations from rat brain (source of CB1); tissue Bioivt RAT00BRAINMZN; host or cells: rat brain
T1 sequence (P20272 whole entry): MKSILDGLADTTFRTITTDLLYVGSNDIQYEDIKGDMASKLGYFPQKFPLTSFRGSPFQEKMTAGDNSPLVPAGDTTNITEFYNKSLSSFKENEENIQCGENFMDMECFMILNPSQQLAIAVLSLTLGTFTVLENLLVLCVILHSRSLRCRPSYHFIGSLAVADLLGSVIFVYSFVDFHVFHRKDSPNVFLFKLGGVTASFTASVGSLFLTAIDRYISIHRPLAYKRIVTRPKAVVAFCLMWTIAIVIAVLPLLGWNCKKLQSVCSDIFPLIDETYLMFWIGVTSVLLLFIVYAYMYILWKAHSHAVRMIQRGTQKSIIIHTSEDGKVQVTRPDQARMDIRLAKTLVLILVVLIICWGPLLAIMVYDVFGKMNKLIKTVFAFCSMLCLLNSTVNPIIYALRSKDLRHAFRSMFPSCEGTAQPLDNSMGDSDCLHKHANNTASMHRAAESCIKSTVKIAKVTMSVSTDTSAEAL
Method: The results were analyzed using nonlinear regression to determine the IC50 and Ki values for each ligand (Prism by GraphPad Software, Inc., San Diego, CA). The Ki values are expressed as the mean of two to three experiments each performed in triplicate.

In the case of `CCCCCCC(C)(C)c1ccc([C@@H]2C[C@H](O)CC[C@H]2CCCO)c(O)c1` [CP-55,940, reference compound], the “effect on SNI-induced cold allodynia (number of paw withdrawals)” value (from here on “effect on SNI-induced cold allodynia”) [1] is reported as “strongly reduced”, the Emax [2] is reported as 100% and the “hypothermia compared to baseline and vehicle” value [3] is reported as “induced hypothermia”. For the same compound, the Emax [4] was 85%, the Cmax brain [5] was 19.2 ng/g and the “plasma Cmax increase compared to ‘4042” value [5] was ~10 fold. For the same compound, the half-life ([5]; male, CD-1, mouse, ip) was 2.12 h, the “dose at which catalepsy was recorded” value ([6]; C56BL/6, mouse, in vivo, intraperitoneal) was 0.2 mg/kg and the “window between analgesia and catalepsy” value ([6]; mouse, in vivo) was “no window”. The “dose with increased latencies” value ([7]; Hargreaves test) was 0.2 mg/kg and the “dose with increased latencies” value ([7]; tail flick test) was 0.5 mg/kg.
With `COC(=O)C(C)(NC(=O)c1cc(C)n(-c2cccc(C(F)(F)F)c2)n1)c1cccs1` (centres unmarked) [‘4042] the “effect on SNI-induced cold allodynia” value [1] was “strongly reduced”, the EC50 [2] was 33.9 nM and the Emax [2] was 28%. The “hypothermia compared to baseline and vehicle” value [3] was “induced hypothermia”, the EC50 [4] was 3.3 nM and the Emax [4] was 78%. The Cmax brain [5] was 16.8 ng/g, the “compartments in which compound was found” value [5] was “appreciably in brain and plasma, but not CSF compartments” and the AUC(0-inf) ([5]; male, CD-1, mouse, brain, ip, read-out: AUC0→inf brain tissue (converted)) was 53 ng·h/mL. For the same compound, the half-life ([5]; male, CD-1, mouse, ip) was 1.9 h, the Cmax ([5]; male, CD-1, mouse, plasma, ip) was 5.14 ng/mL and 12 nM and the AUC(0-inf) ([5]; male, CD-1, mouse, plasma, ip, read-out: AUC0→inf plasma (converted)) was 22.5 ng·h/mL. For the same compound, the cataleptic behavior [6] was “did not induce cataleptic behavior”, the “concentration window between anti-allodynia or analgesia versus catalepsy and sedation, maximum” value [6] was “up to a twenty-fold” and the “concentration window between anti-allodynia or analgesia versus catalepsy and sedation, typical” value ([6]; mouse, in vivo) was “five- to ten-fold”. For the same compound, the “dose at which catalepsy was recorded” value ([6]; mouse, in vivo) was > 1.0 mg/kg, the “window between analgesia and both sedation and catalepsy” value ([6]; typical) was 5–10 fold and the “tail flick latency of co-injection with morphine (3.0 mg/kg, i.p.) versus morphine alone” value [7] was “significantly longer tail flick latencies”. The “analgesic effect under CB1R knockout or AM251 (5.0 mg/kg) pre-treatment” value [7] was “completely blocked”, the “decrease of analgesic effects by CB2R knockout or SR-144528 (1.0 mg/kg)” value ([7]; tail flick or Hargreaves assays) was “neither” and the “lowest dose with significant analgesia (latencies above baseline)” value [7] was 0.1 mg/kg. For the same compound, the LE [8] was 0.41, the LLE [8] was 4.6 and the Emax [8] was 99%. The Ki ([8]; rCB1 binding Ki [95% CI]) was 1.9 nM and 1.86 nM.
With `COC(=O)[C@@](C)(NC(=O)c1cc(C)n(-c2cccc(C(F)(F)F)c2)n1)c1cccs1` [‘1350] the “effect on SNI-induced cold allodynia” value [1] was “strongly reduced”, the “dose with significant anti-allodynia” value ([1]; acetone test for cold pain) was 0.05 mg/kg and the “hypothermia compared to baseline and vehicle” value [3] was “induced hypothermia”. The EC50 [4] was 1.6 nM, the “hCB1 Lance Ultra cAMP Emax [95% CI]” value [4] was 78% and the Emax [4] was 77%. The cataleptic behavior [6] was “did not induce cataleptic behavior”, the “concentration window between anti-allodynia or analgesia versus catalepsy and sedation, maximum” value [6] was “up to a twenty-fold” and the “concentration window between anti-allodynia or analgesia versus catalepsy and sedation, typical” value ([6]; mouse, in vivo) was “five- to ten-fold”. The “dose at which catalepsy was recorded” value ([6]; mouse, in vivo) was > 1.0 mg/kg and 1 mg/kg, the “window between anti-allodynia and catalepsy” value ([6]; tail-flick and hot-plate, 0.1 mg/kg vs 1 mg/kg highest tested dose) was “at least a ten-fold” and the “tail flick latency of co-injection with morphine (3.0 mg/kg, i.p.) versus morphine alone” value [7] was “significantly longer tail flick latencies”. The “analgesic effect under CB1R knockout or AM251 (5.0 mg/kg) pre-treatment” value [7] was “completely blocked”, the “lowest dose with significant analgesia (latencies above baseline)” value [7] was 0.1 mg/kg and the Emax [8] was 106%. For the same compound, the Ki ([8]; rCB1 binding Ki [95% CI]) was 0.95 nM and the Ki ([8]; rCB1 binding pKi [95% CI]) was 1 nM.
With `COC(=O)C(NC(=O)c1cc(C)n(-c2cccc(C(F)(F)F)c2)n1)c1cccs1` (centres unmarked) [‘60154] the EC50 [2] was 3340 nM, the Emax [2] was 21% and the EC50 [4] was 316 nM. The Emax [4] was 67%, the LE [8] was 0.36 and the LLE [8] was 3.5. It also gave an Emax [8] of 110%, a Ki ([8]; rCB1 binding Ki [95% CI]) of 44.3 nM and a Ki ([8]; rCB1 binding pKi [95% CI]) of 39.8 nM.
